Assay results from patent publication US8785374B2, “Inhibitors of mammalian tight junction opening” (Alba Therapeutics Corporation, priority 2007, dated 2014).
Non-standard residues stand in square brackets, D forms with d. No end group written: not given here. pGlu = O=C1CC[C@@H](C(=O)O)N1; Gip = not defined here

Columns and labels:
[1] = tested on: CaCo2 monolayers (tight junctions); experiment: Inhibition of agonist-induced decrease in trans epithelial electric resistance (TEER) of CaCo2 monolayers; settings: for Prevented TEER Reduction: inhibition of the reduction in TEER induced by SEQ ID NO:70 (FCIGRL), CaCo2 monolayers
Source text: (§1) Measurement of the Inhibition of the Decrease in Trans Epithelial Electric Resistance (TEER) and Epithelial Flux of a Fluorescent Marker Lucifer Yellow
(§2) Antagonists of tight junctions can be identified by their ability to prevent or decrease the enhancement of the flux of compounds (e.g. Lucifer Yellow) through the monolayer induced by agonists of tight junctions (e.g., SEQ ID NO: 70). Antagonists of tight junctions can also be identified by their ability to prevent the decrease in TEER induced by agonists of tight junctions (e.g., SEQ ID NO: 70).
(§3) Tight junction antagonists can be identified using the following method:
(§4) Prepare Modified Hank's Balanced Salt Solution (MHBSS) by obtaining IL bottle of HBSS removing 10 ml of HBSS and replacing it with 10 ml HEPES buffer pH 7.0. Adjust pH to 7.4±0.1 using concentrated NaOH (10N).
(§5) Remove Caco-2 cells from incubator, grown on 12-well, […], polycarbonate Transwell® filters (Corning) and record passage number, date cells seeded and age in days.
(§6) Aspirate cell culture medium from both the apical (AP) and basolateral (BL) compartments, replacing with 0.5 ml and 1.5 ml of MHBSS, respectively. Incubate cells at 37° C. for 30 minutes.
Using the MilliCell®-ERS instrument (Millipore), measure and record the transepithelial electrical resistance (TEER) across each filter and record.
(§7) Prepare a stock solution of the Antagonist Pretreatment Solution by dissolving the appropriate amount of antagonist in MHBSS. Vortex or sonicate the solution until it is clear then adjust pH to 7.4±0.1 using 1N NaOH. Preincubate each filter for 30 min with these solutions at 37° C. and 50 RPM.
(§8) Prepare stock solutions of Antagonist Treatment Solution by dissolving appropriate amounts of antagonist and agonist (for example, a peptide agonist such as a peptide having the sequence FCIGRL (SEQ ID NO: 70)) in 7.5 mM Lucifer Yellow solution in MHBSS. Vortex or sonicate the solution until it is clear then adjust pH to 7.4±0.1 using 1N NaOH.
(§9) Aspirate Antagonist Pretreatment Solution from the apical compartment of each filter (n=3 per condition) and replace with 0.5 ml of control and test solutions.
(§10) Place all plates into incubator set at 37° C. (±0.2), 50 RPM (±5) for a total of 180 minutes.
At t=30, 60, 120 and 180 minutes, measure and record the transepithelial electrical resistance (TEER) across each filter using the MilliCell-ERS instrument.
(§11) Cells: Caco-2 cells passage 40-60 grown on Transwell® plates for 21-28 days
(§12) SEQ ID NO: 70 is a 6-mer peptide tight junction agonist having the sequence FCIGRL. See US patent publication US 2005/0059593 A1. In the following tables + indicates attenuation of the effects of the tight junction agonist were observed and − indicates no attenuation of the effects of the tight junction agonist were observed.

[2] = tested on: CaCo2 monolayers (tight junctions); experiment: Inhibition of agonist-induced Lucifer Yellow flux through CaCo2 monolayers; settings: for Reduced LY Permeability: inhibition of the increase in Lucifer Yellow permeability induced by SEQ ID NO:70 (FCIGRL), CaCo2 monolayers
Source text: as §1, §2, §3, §4, §5, §6, §7, §8, §9, §10
At t=60, 120 and 180 minutes remove 100 μl from each basolateral compartment and place it in a 96-well plate for Lucifer Yellow analysis, replace with 100 μl of HBSS.
Make a Lucifer Yellow standard curve with the following dilutions (7500 μM, 3750 μM, 750 μM, 375 μM, 75 μM, 37.5 μM, 7.5 μM, 3.75 μM, 0.75 μM) and pipette 100 μL of each into a 96-well plate except for the first three standards mentioned above which require a 1:10 dilution prior to transferring to the 96-well plate.
At t=0 make 1:10 dilutions of each starting Antagonist Treatment Solution mentioned above and pipette 100 μL of each into a 96-well plate.
At t=180 make 1:10 dilutions of Antagonist Treatment Solution from the apical compartment of each filter and pipette 100 μL of each into the 96-well plate.
Analyze each 96-well plate in a Tecan Spectra Fluor Plus using Magellan at 485 and 535 nm.
as §11, §12

[3] = agonist alone, compared to vehicle alone

| Substance | Prevented TEER Reduction [1] | Reduced LY Permeability [2] | Decrease of TEER in CaCo2 monolayers [1, 3] | Enhancement of Lucifer Yellow permeability through CaCo2 monolayers [2, 3] |
| --- | --- | --- | --- | --- |
| (d)Gln-(d)Pro-Gly ([dQ]-[dP]-Gly) [SEQ ID NO: 12] | − | − |  |  |
| (d)Gln-Pro-Gly ([dQ]-Pro-Gly) [SEQ ID NO: 10] | + | + |  |  |
| Ala-Pro-Gly (APG; Tight junction antagonist) [SEQ ID NO: 7] | + | + |  |  |
| Ala-Pro-Gly (APG; Tight junction antagonist) [SEQ ID NO: 17] | + | + |  |  |
| Arg-Pro-Gly (RPG; Tight junction antagonist) [SEQ ID NO: 20] | + | + |  |  |
| Asn-Pro-Gly (NPG; Tight junction antagonist) [SEQ ID NO: 27] | + | + |  |  |
| Asp-Pro-Gly (DPG; Tight junction antagonist) [SEQ ID NO: 19] | − | − |  |  |
| FCIGRL [FCIGRL, reference compound] |  |  | 16 fold | 51 fold |
| GGVLVQPG [SEQ ID NO: 1, reference compound] | + | + |  |  |
| GVLVQPG [SEQ ID NO: 2] | − | − |  |  |
| Gip-Pro-Ile ([Gip]-Pro-Ile; reading uncertain; also: printed as Gip-Pro-Ile) [SEQ ID NO: 67] | + | − |  |  |
| Gln-(d)Pro-Gly (Gln-[dP]-Gly) [SEQ ID NO: 11] | + | + |  |  |
| Gln-Ala-Gly (QAG; Tight junction antagonist) [SEQ ID NO: 8] | + | + |  |  |
| Gln-Pro-Ala (QPA; Tight junction antagonist) [SEQ ID NO: 9] | + | + |  |  |
| Gln-Pro-Gly (QPG; Tight junction antagonist) [SEQ ID NO: 6] | + | + |  |  |
| Glp-Arg-Gly ([pGlu]-Arg-Gly) [SEQ ID NO: 47] | − | − |  |  |
| Glp-Asn-Gly ([pGlu]-Asn-Gly) [SEQ ID NO: 46] | − | − |  |  |
| Glp-Asp-Gly ([pGlu]-Asp-Gly) [SEQ ID NO: 50] | − | − |  |  |
| Glp-Gln-Gly ([pGlu]-Gln-Gly) [SEQ ID NO: 37] | − | − |  |  |
| Glp-Glu-Gly ([pGlu]-Glu-Gly) [SEQ ID NO: 41] | − | − |  |  |
| Glp-Gly-Gly ([pGlu]-Gly-Gly) [SEQ ID NO: 48] | − | − |  |  |
| Glp-His-Gly ([pGlu]-His-Gly) [SEQ ID NO: 45] | − | − |  |  |
| Glp-Ile-Gly ([pGlu]-Ile-Gly) [SEQ ID NO: 43] | − | − |  |  |
| Glp-Leu-Gly ([pGlu]-Leu-Gly) [SEQ ID NO: 52] | − | − |  |  |
| Glp-Lys-Gly ([pGlu]-Lys-Gly) [SEQ ID NO: 39] | − | − |  |  |
| Glp-Met-Gly ([pGlu]-Met-Gly) [SEQ ID NO: 51] | − | − |  |  |
| Glp-Phe-Gly ([pGlu]-Phe-Gly) [SEQ ID NO: 40] | − | − |  |  |

| Substance | Prevented TEER Reduction [1] | Reduced LY Permeability [2] | Decrease of TEER in CaCo2 monolayers [1, 3] | Enhancement of Lucifer Yellow permeability through CaCo2 monolayers [2, 3] |
| --- | --- | --- | --- | --- |
| Glp-Pro-Arg ([pGlu]-Pro-Arg) [SEQ ID NO: 62] | − | − |  |  |
| Glp-Pro-Asn ([pGlu]-Pro-Asn) [SEQ ID NO: 54] | + | − |  |  |
| Glp-Pro-Asp ([pGlu]-Pro-Asp) [SEQ ID NO: 59] | − | − |  |  |
| Glp-Pro-Gln ([pGlu]-Pro-Gln) [SEQ ID NO: 53] | − | − |  |  |
| Glp-Pro-Glu ([pGlu]-Pro-Glu) [SEQ ID NO: 65] | − | − |  |  |
| Glp-Pro-Gly ([pGlu]-Pro-Gly) [SEQ ID NO: 35] | + | + |  |  |
| Glp-Pro-His ([pGlu]-Pro-His) [SEQ ID NO: 60] | − | − |  |  |
| Glp-Pro-Leu ([pGlu]-Pro-Leu) [SEQ ID NO: 61] | − | − |  |  |
| Glp-Pro-Lys ([pGlu]-Pro-Lys) [SEQ ID NO: 64] | − | − |  |  |
| Glp-Pro-Met ([pGlu]-Pro-Met) [SEQ ID NO: 68] | + | − |  |  |
| Glp-Pro-Phe ([pGlu]-Pro-Phe) [SEQ ID NO: 66] | − | − |  |  |
| Glp-Pro-Pro ([pGlu]-Pro-Pro) [SEQ ID NO: 57] | + | − |  |  |
| Glp-Pro-Ser ([pGlu]-Pro-Ser) [SEQ ID NO: 56] | − | − |  |  |
| Glp-Pro-Trp ([pGlu]-Pro-Trp) [SEQ ID NO: 58] | − | − |  |  |
| Glp-Pro-Tyr ([pGlu]-Pro-Tyr) [SEQ ID NO: 69] | + | − |  |  |
| Glp-Pro-Val ([pGlu]-Pro-Val) [SEQ ID NO: 63] | − | − |  |  |
| Glp-Ser-Gly ([pGlu]-Ser-Gly) [SEQ ID NO: 38] | − | − |  |  |
| Glp-Thr-Gly ([pGlu]-Thr-Gly) [SEQ ID NO: 42] | − | − |  |  |
| Glp-Trp-Gly ([pGlu]-Trp-Gly) [SEQ ID NO: 49] | − | − |  |  |
| Glp-Tyr-Gly ([pGlu]-Tyr-Gly) [SEQ ID NO: 44] | − | − |  |  |
| Glp-Val-Gly ([pGlu]-Val-Gly) [SEQ ID NO: 36] | − | − |  |  |
| Glu-Pro-Gly (EPG; Tight junction antagonist) [SEQ ID NO: 23] | + | + |  |  |
| Gly-(d)Pro-(d)Gln (Gly-[dP]-[dQ]) [SEQ ID NO: 16] | − | − |  |  |
| Gly-(d)Pro-Gln (Gly-[dP]-Gln) [SEQ ID NO: 14] | − | − |  |  |
| Gly-Pro-(d)Gln (Gly-Pro-[dQ]) [SEQ ID NO: 15] | − | − |  |  |
| Gly-Pro-Gln (GPQ; Tight junction antagonist) [SEQ ID NO: 13] | + | + |  |  |
| Gly-Pro-Gly (GPG; Tight junction antagonist) [SEQ ID NO: 22] | + | + |  |  |
